Source: patent publication US20030207813A1, “Retroviral protease inhibitor combinations” (priority 1995, published 2003)

How the values were obtained:
HIV-1NL4-3 = experiment: microbe, parasite or virus in culture; type: cell-based; conditions: Human immunodeficiency virus 1, NL4
From the text: (§1) RF represents the HIV-1 strain HIV-LRF and RFR represents a mixture of resistant strains obtained by selection of RF against the compound of Example 1. […] RFR2 represents a mixture of resistant strains obtained by cloning RFR by three rounds of growth at limiting dilution. […] RFRR represents a mixture of resistant strains obtained by selection of RF against the compounds of Examples 1 and 2 and then cloning by three rounds of growth at limiting dilution. […] SF162 represents the HIV-1 strain SF-162 and SF162R represents a mixture of resistant strains obtained by selection of SF162 against the compound of Example 1. […] 89-959 represents the HIV-1 strain 89-959 and 89-959R represents a mixture of resistant strains obtained by selection of 89-959 against the compound of Example 2. […] NL4 represents the HIV-1 strain HIV-1NL4-3. NL4(G48V) represents a strain having a synthetically generated site-directed mutation in the protease from glycine to valine at amino acid position number 48. NL4(I84V) represents a strain having a synthetically generated site-directed mutation in the protease from isoleucine to valine at amino acid position number 84. NL4(R8Q,M46I) represents a strain having synthetically generated site-directed mutations in the protease from arginine to glutamine at amino acid position number 8 and methionine to isoleucine at amino acid position number 46.

NL4(G48V) = experiment: Viral isolate resistance assay per Markowitz et al., NL4(G48V); type: cell-based, HIV-1; conditions: Human immunodeficiency virus 1, Table 7
From the text: as §1

NL4(I84V) = experiment: Viral isolate resistance assay per Markowitz et al., NL4(I84V); type: cell-based, HIV-1; conditions: Human immunodeficiency virus 1, Table 7
From the text: as §1

NL4(R8Q,M46I) = experiment: Viral isolate resistance assay per Markowitz et al., NL4(R8Q,M46I); type: cell-based, HIV-1; conditions: Human immunodeficiency virus 1, read-out: Virus Isolate (EC50 nM) NL4(R8O, M46I)
From the text: (§2) RF represents the HIV-1 strain HIV-LRF and RFR represents a mixture of resistant strains obtained by selection of RF against the compound of Example 1. RFR comprises a mixture of viral strains having protease genotypes of G48V (14/40 clones); G48V, V82A (18/40 clones); G48V, L90S (2/40 clones); G48V, 154T, V82A (1/40 clones); G48M (1/40 clones); G48V, Q61H (1/40 clones); V13I, G48V (1/40 clones); G48V, F53L, V82A (1/40 clones); and G48V, V82A, C95Y (1/40 clones). RFR2 represents a mixture of resistant strains obtained by cloning RFR by three rounds of growth at limiting dilution. RFR2 comprises a mixture of viral strains having protease genotypes of G48V, V82A (13/15 clones); G17E, G48V, V82A (1/15 clones); and G48V, V82A, N37D, N88D (1/15 clones). RFRR represents a mixture of resistant strains obtained by selection of RF against the compounds of Examples 1 and 2 and then cloning by three rounds of growth at limiting dilution. RFRR comprises a mixture of viral strains having protease genotypes of G48V, 154T, L63P, V82A (7/9 clones); G48V, 154T, L63P, V82A, N88S (1/9 clones); and G48V, 154T, L63P, G73M, V82A (1/9 clones). SF162 represents the HIV-1 strain SF-162 and SF162R represents a mixture of resistant strains obtained by selection of SF162 against the compound of Example 1. SF162R comprises a mixture of viral strains having protease genotypes of M461, F53L, L63P, A71V, N88D (2/3 clones); and M46I, F53L, L63P, A71V, N88D, Q92R (1/3 clones). 89-959 represents the HIV-1 strain 89-959 and 89-959R represents a mixture of resistant strains obtained by selection of 89-959 against the compound of Example 2. 89-959R comprises a mixture of viral strains having protease genotypes of N88S (4/5 clones); and D25N, T26A, D30N, D37N, R41K, G73D, R87K, N88S (1/4 clones). NL4 represents the HIV-1 strain HIV-1NL4-3. NL4(G48V) represents a strain having a synthetically generated site-directed mutation in the protease from glycine to valine at amino acid position number 48. […]

NL4(P22-538) = experiment: Viral isolate resistance assay per Markowitz et al., NL4(P22-538); type: cell-based, HIV-1; conditions: Human immunodeficiency virus 1; Table 9; selected against Example 10, 22 passages; read-out: Virus Isolate (EC50 nM) NL4(P22-538)
From the text: as §2, with “48. NL4(I84V) represents a strain having a synthetically generated site-directed mutation in the protease from isoleucine to valine at amino acid position number 84. NL4(R8Q,M46I) represents a strain having synthetically generated site-directed mutations in the protease from arginine to glutamine at amino acid position number 8 and methionine to isoleucine at amino acid position number 46. NL4(P22-538) represents a mixture of resistant strains obtained by selection of HIV-1NL4-3 against the compound of Example 10 after 22 passages comprising protease genotypes M46I, L63P, A71V, V82F, I84V (4/10); M46I, L63P, V82F, I84V (3/10); and M46I, A71V, V82F, I84V (3/10). NL4(P37-538) represents resistant strains obtained by selection of HIV-1NL4-3 against the compound of Example 10 after 37 passages comprising protease genotype M46I, L63P, A71V, 184A. NL4(538/524) represents resistant strains obtained by selection of NL4(P22-538) against the compound of Example 5 after 24 passages comprising protease genotype M46I, L63P, A71V, 184A. NL4(538/P7-AG) represents a mixture of resistant strains obtained by selection of NL4(P22-538) against the compound of Example 12 after 7 passages comprising protease genotypes M46I, L63P, A71V, 184A; and V321, V82I. NL4(538/P24-AG) represents resistant strains obtained by selection of NL4(P22-538) against the compound of Example 12 after 24 passages comprising protease genotype M46I, L63P, A71V, 184A.” for “48.”

NL4(P37-538) = experiment: Viral isolate resistance assay per Markowitz et al., NL4(P37-538); type: cell-based, HIV-1; conditions: Human immunodeficiency virus 1; Table 9; selected against Example 10, 37 passages; read-out: Virus Isolate (EC50 nM) NL4(P37-538)
From the text: (§3) RF represents the HIV-1 strain HIV-LRF and RFR represents a mixture of resistant strains obtained by selection of RF against the compound of Example 1. RFR comprises a mixture of viral strains having protease genotypes of G48V (14/40 clones); G48V, V82A (18/40 clones); G48V, L90S (2/40 clones); G48V, 154T, V82A (1/40 clones); G48M (1/40 clones); G48V, Q61H (1/40 clones); V13I, G48V (1/40 clones); G48V, F53L, V82A (1/40 clones); and G48V, V82A, C95Y (1/40 clones). RFR2 represents a mixture of resistant strains obtained by cloning RFR by three rounds of growth at limiting dilution. RFR2 comprises a mixture of viral strains having protease genotypes of G48V, V82A (13/15 clones); G17E, G48V, V82A (1/15 clones); and G48V, V82A, N37D, N88D (1/15 clones). RFRR represents a mixture of resistant strains obtained by selection of RF against the compounds of Examples 1 and 2 and then cloning by three rounds of growth at limiting dilution. RFRR comprises a mixture of viral strains having protease genotypes of G48V, 154T, L63P, V82A (7/9 clones); G48V, 154T, L63P, V82A, N88S (1/9 clones); and G48V, 154T, L63P, G73M, V82A (1/9 clones). SF162 represents the HIV-1 strain SF-162 and SF162R represents a mixture of resistant strains obtained by selection of SF162 against the compound of Example 1. SF162R comprises a mixture of viral strains having protease genotypes of M461, F53L, L63P, A71V, N88D (2/3 clones); and M46I, F53L, L63P, A71V, N88D, Q92R (1/3 clones). 89-959 represents the HIV-1 strain 89-959 and 89-959R represents a mixture of resistant strains obtained by selection of 89-959 against the compound of Example 2. 89-959R comprises a mixture of viral strains having protease genotypes of N88S (4/5 clones); and D25N, T26A, D30N, D37N, R41K, G73D, R87K, N88S (1/4 clones). NL4 represents the HIV-1 strain HIV-1NL4-3. NL4(G48V) represents a strain having a synthetically generated site-directed mutation in the protease from glycine to valine at amino acid position number 48. NL4(I84V) represents a strain having a synthetically generated site-directed mutation in the protease from isoleucine to valine at amino acid position number 84. NL4(R8Q,M46I) represents a strain having synthetically generated site-directed mutations in the protease from arginine to glutamine at amino acid position number 8 and methionine to isoleucine at amino acid position number 46. NL4(P22-538) represents a mixture of resistant strains obtained by selection of HIV-1NL4-3 against the compound of Example 10 after 22 passages comprising protease genotypes M46I, L63P, A71V, V82F, I84V (4/10); M46I, L63P, V82F, I84V (3/10); and M46I, A71V, V82F, I84V (3/10). NL4(P37-538) represents resistant strains obtained by selection of HIV-1NL4-3 against the compound of Example 10 after 37 passages comprising protease genotype M46I, L63P, A71V, 184A. NL4(538/524) represents resistant strains obtained by selection of NL4(P22-538) against the compound of Example 5 after 24 passages comprising protease genotype M46I, L63P, A71V, 184A. NL4(538/P7-AG) represents a mixture of resistant strains obtained by selection of NL4(P22-538) against the compound of Example 12 after 7 passages comprising protease genotypes M46I, L63P, A71V, 184A; and V321, V82I. NL4(538/P24-AG) represents resistant strains obtained by selection of NL4(P22-538) against the compound of Example 12 after 24 passages comprising protease genotype M46I, L63P, A71V, 184A. NLA(P19-003) represents resistant strains obtained by selection of HIV-1^NL4-3 against the compound of Example 9 after 19 passages comprising protease genotype R8K, M46I. NL4(P34-003) represents resistant strains obtained by selection of HIV-1^NL4-3 against the compound of Example 9 after 34 passages comprising protease genotype R8K, M46I, L63P, A71V, L90M.
The viral isolate resistance results summarized in Tables 7-11 were generated according to the assay procedures described by Markowitz et al., Journal of Virology, vol. […]

NL4(538/524) = experiment: Viral isolate resistance assay per Markowitz et al., NL4(538/524); type: cell-based, HIV-1; conditions: Human immunodeficiency virus 1; Table 10; NL4(P22-538) selected against Example 5, 24 passages
From the text: as §3, with “NLA(P19-003) represents resistant strains obtained by selection of HIV-1^NL4-3 against the compound of Example 9 after 19 passages comprising protease genotype R8K, M46I. NL4(P34-003) represents resistant strains obtained by selection of HIV-1^NL4-3 against the compound of Example 9 after 34 passages comprising protease genotype R8K, M46I, L63P, A71V, L90M.” left out

NL4(538/P7-AG) = experiment: Viral isolate resistance assay per Markowitz et al., NL4(538/P7-AG); type: cell-based, HIV-1; conditions: Human immunodeficiency virus 1; Table 10; NL4(P22-538) selected against Example 12, 7 passages
From the text: as §3, with “NLA(P19-003) represents resistant strains obtained by selection of HIV-1^NL4-3 against the compound of Example 9 after 19 passages comprising protease genotype R8K, M46I. NL4(P34-003) represents resistant strains obtained by selection of HIV-1^NL4-3 against the compound of Example 9 after 34 passages comprising protease genotype R8K, M46I, L63P, A71V, L90M.” left out

NL4(538/P24-AG) = experiment: Viral isolate resistance assay per Markowitz et al., NL4(538/P24-AG); type: cell-based, HIV-1; conditions: Human immunodeficiency virus 1; Table 10; NL4(P22-538) selected against Example 12, 24 passages
From the text: as §3, with “NLA(P19-003) represents resistant strains obtained by selection of HIV-1^NL4-3 against the compound of Example 9 after 19 passages comprising protease genotype R8K, M46I. NL4(P34-003) represents resistant strains obtained by selection of HIV-1^NL4-3 against the compound of Example 9 after 34 passages comprising protease genotype R8K, M46I, L63P, A71V, L90M.” left out

NLA(P19-003) = experiment: Viral isolate resistance assay per Markowitz et al., NLA(P19-003); type: cell-based, HIV-1; conditions: Human immunodeficiency virus 1, read-out: Virus Isolate (EC50 nM) NLA(P19-003)
From the text: as §2

NL4(P34-003) = experiment: Viral isolate resistance assay per Markowitz et al., NL4(P34-003); type: cell-based, HIV-1; conditions: Human immunodeficiency virus 1; Table 11; selected against Example 9, 34 passages
From the text: as §2

Nc1cccc(CN2C(=O)N(Cc3cccc(N)c3)[C@H](Cc3ccccc3)[C@H](O)[C@@H](O)[C@H]2Cc2ccccc2)c1 [Example 13, [4R-(4α,5α,6β,7β)]-1,3-bis[(3-aminophenyl)methyl]hexahydro-5,6-dihydroxy-4,7-bis(phenylmethyl)-2H-1,3-diazepin-2-one]
EC90 (HIV-1NL4-3; Table 7, EC90, read-out: Virus Isolate (EC90 nM) NL4): 250 nM
EC50 (HIV-1NL4-3; Table 8, read-out: Virus Isolate (EC50 nM) NL4): 250 nM
EC90 (NL4(G48V)): 1000 nM
EC90 (NL4(I84V)): 6250 nM
EC50 (NL4(R8Q,M46I)): 750 nM
EC50 (NL4(P22-538)): 5000 nM
EC50 (NL4(P37-538)): > 31200 nM
EC50 (NL4(538/524)): > 31200 nM
EC50 (NL4(538/P7-AG)): > 31200 nM
EC50 (NL4(538/P24-AG)): > 31200 nM
EC50 (NLA(P19-003)): 1250 nM
EC50 (NL4(P34-003)): 1250 nM
